Our source for the IC50 values is US9938268B2, “C-ring modified tricyclic benzonaphthiridinone protein kinase inhibitors and use thereof” (Merck Patent GmbH, priority 2008, dated 2018).

Aurora A, sequence (O14965 whole entry): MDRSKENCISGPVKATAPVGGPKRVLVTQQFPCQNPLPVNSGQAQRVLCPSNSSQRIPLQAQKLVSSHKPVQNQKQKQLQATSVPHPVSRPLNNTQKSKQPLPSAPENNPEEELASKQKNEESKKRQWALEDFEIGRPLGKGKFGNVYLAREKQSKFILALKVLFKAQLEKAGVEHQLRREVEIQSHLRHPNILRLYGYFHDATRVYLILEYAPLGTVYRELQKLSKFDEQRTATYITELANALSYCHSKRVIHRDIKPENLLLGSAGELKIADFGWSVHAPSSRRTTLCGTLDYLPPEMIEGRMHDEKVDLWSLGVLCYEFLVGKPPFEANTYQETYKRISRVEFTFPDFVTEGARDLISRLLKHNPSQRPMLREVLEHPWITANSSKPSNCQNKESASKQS

One experiment concerns the target Aurora A (Homo sapiens (Human), UniProt O14965). The experiment in a line: Aurora A kinase inhibition (IC50).
Conditions: not given
It is filed as biochemical.
Regarding `O=C(Nc1ccc(Nc2ccnc3[nH]c(=O)c4c(c23)CCNC4)cc1)c1ccc(F)cc1` [Compound 25, 4-Fluoro-N-[4-(9-oxo-5,6,7,8,9,10-hexahydro-1,7,10-triaza-phenanthren-4-ylamino)-phenyl]-benzamide], the IC50 fell in the range of 101 to 1000 nM.

Take `O=C(Nc1ccc(Nc2ccnc3[nH]c(=O)c4c(c23)CCCC4)c(F)c1)c1cccc(F)c1` [Compound 53, 3-Fluoro-N-[3-fluoro-4-(6-oxo-5,6,7,8,9,10-hexahydrobenzo[c][1,8]naphthyridin-1-ylamino)-phenyl]-2-benzamide]: the IC50 lay within 1 to 10 nM.

In the case of `O=C(Nc1ccc(Nc2ccnc3[nH]c(=O)c4c(c23)CCCC4)cc1)c1cccc(C(F)(F)F)c1F` [Compound 11, 2-Fluoro-N-[4-(6-oxo-5,6,7,8,9,10-hexahydrobenzo[c][1,8]naphthyridin-1-ylamino)-phenyl]-3-trifluoromethyl-benzamide], the IC50 was 1 to 10 nM.

In turn, `O=C(Nc1ccc(Nc2ccnc3[nH]c(=O)c4c(c23)CCN(Cc2ccccc2)C4)cc1)c1ccccc1` [Compound 29, N-[4-(7-Benzyl-9-oxo-5,6,7,8,9,10-hexahydro-1,7,10-triaza-phenanthren-4-ylamino)-phenyl]-benzamide] gave an IC50 of 101 to 1000 nM.

For the compound `O=c1[nH]c2nccc(Nc3ccccc3)c2c2occc12` [Compound 37, 9-Phenylamino-5H-furo[3,2-c][1,8]naphthyridin-4-one], the IC50 fell in the range of 101 to 1000 nM.

Take `O=C(Nc1ccc(Nc2ccnc3[nH]c(=O)c4c(c23)CCCC4)cc1)c1ccc(F)cc1C(F)(F)F` [Compound 6, 4-Fluoro-N-[4-(6-oxo-5,6,7,8,9,10-hexahydrobenzo[c][1,8]naphthyridin-1-ylamino)-phenyl]-2-trifluoromethyl-1-benzamide]: the IC50 fell in the range of 1 to 10 nM.

Consider `O=C(Nc1ccc(Nc2ccnc3[nH]c(=O)c4c(c23)CCCC4)c(F)c1)c1ccc(F)cc1C(F)(F)F` [Compound 52, 4-Fluoro-N-[3-fluoro-4-(6-oxo-5,6,7,8,9,10-hexahydrobenzo[c][1,8]naphthyridin-1-ylamino)-phenyl]-2-trifluoromethyl-benzamide], for which the IC50 lay in the range of 1 to 10 nM.

As to `O=C(Nc1ccc(Nc2ccnc3[nH]c(=O)c4c(c23)CCCC4)c(F)c1)c1ccc(F)c(F)c1` [Compound 55, 3,4-Difluoro-N-[3-fluoro-4-(6-oxo-5,6,7,8,9,10-hexahydrobenzo[c][1,8]naphthyridin-1-ylamino)-phenyl]-1-benzamide], the IC50 lay in the range of 1 to 10 nM.

In the case of `O=C(Nc1ccc(Nc2ccnc3[nH]c(=O)c4c(c23)CCNC4)cc1)c1ccc(F)c(F)c1` [Compound 26, 3,4-Difluoro-N-[4-(9-oxo-5,6,7,8,9,10-hexahydro-1,7,10-triaza-phenanthren-4-ylamino)-phenyl]-benzamide], the IC50 was in the range of 11 to 100 nM.

Compound `O=C(Nc1ccc(Nc2ccnc3[nH]c(=O)c4c(c23)CCCC4)cc1F)c1ccc(F)cc1C(F)(F)F` [Compound 54, 4-Fluoro-N-[2-fluoro-4-(6-oxo-5,6,7,8,9,10-hexahydrobenzo[c][1,8]naphthyridin-1-ylamino)-phenyl]-2-trifluoromethyl-benzamide] gave an IC50 of 1 to 10 nM.

As for `COc1ccc(Nc2ccnc3[nH]c(=O)c4ccoc4c23)cc1` [Compound 38, 9-(4-Methoxy-phenylamino)-5H-furo[3,2-c][1,8]naphthyridin-4-one], the IC50 lay within 101 to 1000 nM.

`O=C(Nc1ccc(Oc2ccnc3[nH]c(=O)c4c(c23)CCCC4)cc1)c1cccn(-c2ccc(F)cc2)c1=O` [Compound 48, 1-(4-Fluoro-phenyl)-2-oxo-1,2-dihydro-pyridine-3-carboxylic acid [4-(6-oxo-5,6,7,8,9,10-hexahydro-benzo[c][1,8]naphthyridin-1-yloxy)-phenyl]-amide] gave an IC50 of 101 to 1000 nM.

`O=C(Nc1ccc(Nc2ccnc3[nH]c(=O)c4c(c23)CCCC4)cc1)c1ccc(F)c(F)c1` [Compound 8, 3,4-Difluoro-N-[4-(6-oxo-5,6,7,8,9,10-hexahydrobenzo[c][1,8]naphthyridin-1-ylamino)-phenyl]-1-benzamide] had an IC50 of 1 to 10 nM.

`O=C(Nc1ccc(Nc2ccnc3[nH]c(=O)c4n[nH]cc4c23)cc1)c1ccc(F)cc1C(F)(F)F` [Compound 34, 4-fluoro-N-(4-(4-oxo-4,5-dihydro-2H-pyrazolonaphthyridin-9-ylamino)phenyl)-2-(trifluoromethyl)benzamide] came in with an IC50 of 1 to 10 nM.

`O=C(Nc1ccc(Nc2ccnc3[nH]c(=O)c4c(c23)CCNC4)cc1)c1ccccc1` [Compound 27, N-[4-(9-oxo-5,6,7,8,9,10-hexahydro-1,7,10-triaza-phenanthren-4-ylamino)-phenyl]-benzamide] registered an IC50 of 101 to 1000 nM.

`O=C(Nc1ccc(Nc2ccnc3[nH]c(=O)c4c(c23)CNCC4)cc1)c1ccccc1` [Compound 28, N-[4-(9-oxo-5,6,7,8,9,10-hexahydro-1,6,10-triaza-phenanthren-4-ylamino)-phenyl]-benzamide] had an IC50 of 101 to 1000 nM.

`COc1cccc(Nc2ccnc3[nH]c(=O)c4ccoc4c23)c1` [Compound 40, 9-(3-Methoxy-phenylamino)-5H-furo[3,2-c][1,8]naphthyridin-4-one] came in with an IC50 of 101 to 1000 nM.

As to `Nc1ccc(Oc2ccnc3[nH]c(=O)c4c(c23)CCCC4)cc1` [Compound 46, 1-(4-Amino-phenoxy)-7,8,9,10-tetrahydro-5H-benzo[c][1,8]naphthyridin-6-one], the IC50 is 101 to 1000 nM.

In the case of `O=C(Nc1ccc(Nc2ccnc3[nH]c(=O)c4c(c23)CCCC4)cc1)c1c(Cl)cccc1Cl` [Compound 13, 2,6-Dichloro-N-[4-(6-oxo-5,6,7,8,9,10-hexahydrobenzo[c][1,8]naphthyridin-1-ylamino)-phenyl]-1-benzamide], the IC50 was in the range of 1 to 10 nM.

Take `O=C(Nc1ccc(Nc2ccnc3[nH]c(=O)c4c(c23)CCCC4)cc1)c1ccccc1` [Compound 5, N-[4-(6-Oxo-5,6,7,8,9,10-hexahydrobenzo[c][1,8]naphthyridin-1-ylamino)-phenyl]-benzamide]: the IC50 fell in the range of 11 to 100 nM.

Compound `O=C(Nc1ccc(Nc2ccnc3[nH]c(=O)c4c(c23)CCCC4)c(F)c1)c1cccc(F)c1F` [Compound 56, 2,3-Difluoro-N-[3-fluoro-4-(6-oxo-5,6,7,8,9,10-hexahydrobenzo[c][1,8]naphthyridin-1-ylamino)-phenyl]-1-benzamide] yielded an IC50 of 1 to 10 nM.

Regarding `O=C(Nc1ccc(Nc2ccnc3[nH]c(=O)c4n[nH]cc4c23)cc1)c1ccccc1` [Compound 33, N-(4-(4-oxo-4,5-dihydro-2H-pyrazolo[3,4-c][1,8]naphthyridin-9-ylamino)phenyl)benzamide], the IC50 was in the range of 11 to 100 nM.

Consider `O=C(Nc1ccc(Nc2ccnc3[nH]c(=O)c4c(c23)CCCC4)cc1)c1cc(F)cc(F)c1` [Compound 9, 3,5-Difluoro-N-[4-(6-oxo-5,6,7,8,9,10-hexahydrobenzo[c][1,8]naphthyridin-1-ylamino)-phenyl]-1-benzamide], for which the IC50 fell in the range of 1 to 10 nM.

`O=C(Nc1ccc(Nc2ccnc3[nH]c(=O)c4ccoc4c23)cc1)c1ccccc1` [Compound 36, N-[4-(4-oxo-4,5-dihydro-furo[3,2-c][1,8]naphthyridin-9-ylamino)-phenyl]-benzamide] gave an IC50 of 11 to 100 nM.

With `O=C(Nc1ccc(Nc2ccnc3[nH]c(=O)c4c(c23)CCCC4)cc1)c1cccc(F)c1F` [Compound 7, 2,3-Difluoro-N-[4-(6-oxo-5,6,7,8,9,10-hexahydrobenzo[c][1,8]naphthyridin-1-ylamino)-phenyl]-1-benzamide], the IC50 lay within 1 to 10 nM.

With `O=C(Nc1ccc(Nc2ccnc3[nH]c(=O)c4c(c23)CCCC4)cc1)c1ccc(F)cc1` [Compound 10, 4-Fluoro-N-[4-(6-oxo-5,6,7,8,9,10-hexahydrobenzo[c][1,8]naphthyridin-1-ylamino)-phenyl]-1-benzamide], the IC50 lay within 1 to 10 nM.

In turn, `O=c1[nH]c2nccc(Nc3ccc(Cl)cc3)c2c2occc12` [Compound 39, 9-(4-Chloro-phenylamino)-5H-furo[3,2-c][1,8]naphthyridin-4-one] showed an IC50 of 101 to 1000 nM.

The same experiment, now with this note: read-out: Aurora A IC50.
Take `O=c1[nH]c2nccc(Oc3ccc4c(c3)OCCN4)c2c2c1CCCC2` [Compound 47, 1-(3,4-Dihydro-2H-benzo[1,4]oxazin-7-yloxy)-7,8,9,10-tetrahydro-5H-benzo[c][1,8]naphthyridin-6-one]: the IC50 was in the range of 101 to 1000 nM.

Take `O=c1[nH]c2nccc(Cl)c2c2cn(C(c3ccccc3)(c3ccccc3)c3ccccc3)nc12` [Compound 31, 9-Chloro-2-trityl-2H-pyrazolo[3,4-c][1,8]naphthyridin-4(5H)-one]: the IC50 lay within 101 to 1000 nM.

Turning to `O=C(c1cccn(-c2ccc(F)cc2)c1=O)N1CCOc2cc(Oc3ccnc4[nH]c(=O)c5c(c34)CCCC5)ccc21` [Compound 49, 1-{4-[1-(4-Fluoro-phenyl)-2-oxo-1,2-dihydro-pyridine-3-carbonyl]-3,4-dihydro-2H-benzo[1,4]oxazin-7-yloxy}-7,8,9,10-tetrahydro-5H-benzo[c][1,8]naphthyridin-6-one], the IC50 was 101 to 1000 nM.

As for `O=C(Nc1ccc(Nc2ccnc3[nH]c(=O)c4c(c23)CCCC4)cc1)c1cc(Cl)cc(Cl)c1` [Compound 12, 3,5-Dichloro-N-[4-(6-oxo-5,6,7,8,9,10-hexahydrobenzo[c][1,8]naphthyridin-1-ylamino)-phenyl]-1-benzamide], the IC50 is 11 to 100 nM.

On to `O=C(Nc1ccc(Nc2ccnc3[nH]c(=O)c4c(c23)CCNC4)cc1)c1ccc(F)cc1C(F)(F)F` [Compound 24, 4-Fluoro-N-[4-(9-oxo-5,6,7,8,9,10-hexahydro-1,7,10-triaza-phenanthren-4-ylamino)-phenyl]-2-trifluoromethyl-benzamide], for which the 50% inhibitory concentration (IC50) lay within 11 to 100 nM.

As to `Cc1cccc(-n2nc(C(C)(C)C)cc2NC(=O)Nc2ccc(Oc3ccnc4[nH]c(=O)c5c(c34)CCCC5)cc2)c1` [Compound 51, 1-(5-tert-Butyl-2-m-tolyl-2H-pyrazol-3-yl)-3-[4-(6-oxo-5,6,7,8,9,10-hexahydro-benzo[c][1,8]naphthyridin-1-yloxy)-phenyl]-urea], the IC50 was in the range of 101 to 1000 nM.
